As a reminder, the IC50 is the concentration that inhibits the measured activity by half.

Assay [1] deals with T1, human MER (528-end) (Homo sapiens, UniProt Q12866).
T1 construct: human MER (528-end); purchased Camnabio, Japan
T1 sequence (Q12866 528-999 limits assumed): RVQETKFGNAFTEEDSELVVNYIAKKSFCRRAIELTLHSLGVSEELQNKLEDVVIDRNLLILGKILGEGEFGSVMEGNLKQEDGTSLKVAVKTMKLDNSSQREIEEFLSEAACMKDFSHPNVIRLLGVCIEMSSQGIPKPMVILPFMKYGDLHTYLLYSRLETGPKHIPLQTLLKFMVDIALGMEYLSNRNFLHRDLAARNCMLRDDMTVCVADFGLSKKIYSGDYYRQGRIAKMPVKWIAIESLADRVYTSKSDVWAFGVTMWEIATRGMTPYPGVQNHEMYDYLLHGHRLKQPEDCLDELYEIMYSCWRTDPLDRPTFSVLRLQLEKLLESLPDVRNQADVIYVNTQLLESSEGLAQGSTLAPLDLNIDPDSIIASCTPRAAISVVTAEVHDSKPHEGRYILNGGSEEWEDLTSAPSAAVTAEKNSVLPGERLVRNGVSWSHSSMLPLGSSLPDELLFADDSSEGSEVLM
Description: HTRF kinase activity biochemical assay, MER. To be noted: 10 μM ATP, 30 minutes pre-incubation; read-out: HTRF MERTK IC50. A general note: In TR-FRET formats the signal depends on donor and acceptor labels being close together.

Assay [2] has as its target T2, human AXL (473-end) (Homo sapiens, UniProt P30530).
T2 construct: human AXL (473-end); purchased SignalChem, Canada
T2 sequence (P30530 473-894 limits assumed): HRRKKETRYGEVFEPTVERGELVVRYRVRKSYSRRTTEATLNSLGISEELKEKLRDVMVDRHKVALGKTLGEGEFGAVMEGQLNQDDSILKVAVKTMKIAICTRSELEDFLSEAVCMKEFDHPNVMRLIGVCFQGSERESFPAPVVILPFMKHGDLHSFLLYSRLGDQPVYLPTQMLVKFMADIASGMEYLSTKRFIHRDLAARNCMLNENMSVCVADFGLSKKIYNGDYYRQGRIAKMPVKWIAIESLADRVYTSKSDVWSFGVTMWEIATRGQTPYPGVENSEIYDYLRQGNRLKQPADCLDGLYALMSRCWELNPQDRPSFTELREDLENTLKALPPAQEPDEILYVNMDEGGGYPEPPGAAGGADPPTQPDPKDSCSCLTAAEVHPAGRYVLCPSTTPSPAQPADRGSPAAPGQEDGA
Description: HTRF kinase activity biochemical assay, AXL. The following applies: 10 μM ATP, 30 minutes pre-incubation.

The target in assay [3] is T3, human TYRO3 (455-end) (Homo sapiens, UniProt Q06418).
T3 construct: TYRO3 (455-end); purchased SignalChem, Canada
T3 sequence (Q06418 455-890 limits assumed): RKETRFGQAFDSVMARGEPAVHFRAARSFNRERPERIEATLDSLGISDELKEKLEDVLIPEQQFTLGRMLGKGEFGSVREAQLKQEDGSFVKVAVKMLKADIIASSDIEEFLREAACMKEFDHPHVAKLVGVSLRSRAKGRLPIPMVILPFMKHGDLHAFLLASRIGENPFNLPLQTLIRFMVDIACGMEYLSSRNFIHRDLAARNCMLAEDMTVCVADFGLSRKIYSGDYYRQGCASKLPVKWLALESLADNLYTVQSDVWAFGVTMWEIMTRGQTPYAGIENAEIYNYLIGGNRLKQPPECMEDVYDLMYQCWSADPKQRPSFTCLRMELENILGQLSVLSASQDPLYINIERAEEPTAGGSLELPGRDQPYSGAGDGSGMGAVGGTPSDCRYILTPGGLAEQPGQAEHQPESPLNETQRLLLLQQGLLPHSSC
The experiment in a line: HTRF kinase activity biochemical assay, TYRO3.

Setting [4] is: 10 μM ATP, 30 minutes pre-incubation, read-out: HTRF TYRO IC50.

Where two headings read alike, the source gives them in different places. Some results are limits rather than exact numbers.

Regarding `Cn1cc(-c2cnc(N)c(C(=O)N[C@H]3CCC[C@@H]3OCc3ccc(-c4ccc5c(c4)C(C)(C)CN5C4CCN(CCO)CC4)cc3)c2)ccc1=O` [Example 36, 6-amino-N-{(1S,2S)-2-[(4-{1-[1-(2-hydroxyethyl)piperidin-4-yl]-3,3-dimethyl-2,3-dihydro-1H-indol-5-yl}phenyl)methoxy]cyclopentyl}-1′-methyl-6′-oxo-1′,6′-dihydro[3,3′-bipyridine]-5-carboxamide], the figures for the IC50 in assay [1], in assay [2] and in assay [3] (setting [4]) were under 10 nM, under 10 nM and 10 to 100 nM, respectively.
`CN1CC(C(=O)NC2Cc3ccc(-c4ccc(CO[C@H]5CCC[C@@H]5NC(=O)c5cc(-c6cnn(C)c6)cnc5N)cc4)cc3C2)C1` (stereo partly drawn) [Example 11, 2-amino-N-{(1S,2S)-2-[(4-{2-[(1-methylazetidine-3-carbonyl)amino]-2,3-dihydro-1H-inden-5-yl}phenyl)methoxy]cyclopentyl}-5-(1-methyl-1H-pyrazol-4-yl)pyridine-3-carboxamide]: the figures for the IC50 in assay [1], in assay [2] and in assay [3] (setting [4]) were under 10 nM, 10 to 100 nM and over 1000 nM, respectively.
For `Cn1cc(-c2cnc(N)c(C(=O)N[C@H]3CCC[C@@H]3OCc3ccc(-c4ccc5c(c4)C(C)(C)CN5C4CCN(CC(O)CO)CC4)cc3)c2)cn1` (stereo partly drawn) [Example 23, 2-amino-N-{(1S,2S)-2-[(4-{1-[1-(2,3-dihydroxypropyl)piperidin-4-yl]-3,3-dimethyl-2,3-dihydro-1H-indol-5-yl}phenyl)methoxy]cyclopentyl}-5-(1-methyl-1H-pyrazol-4-yl)pyridine-3-carboxamide], the IC50 in assay [1], in assay [2] and in assay [3] (setting [4]) was under 10 nM each time.
Turning to `Cc1cc2cc(-c3ccc(CO[C@H]4CCC[C@@H]4NC(=O)c4cc(-c5cnn(C)c5)cnc4N)cc3)ccc2[nH]1` [Example 56, 2-amino-N-[(1S,2S)-2-{[4-(2-methyl-1H-indol-5-yl)phenyl]methoxy}cyclopentyl]-5-(1-methyl-1H-pyrazol-4-yl)pyridine-3-carboxamide], the IC50 was 10 to 100 nM in assay [1], 10 to 100 nM in assay [2] and over 1000 nM in assay [3] (setting [4]).
Take `Cn1cc(-c2cnc(N)c(C(=O)N[C@H]3CCC[C@@H]3OCc3ccc(-c4ccc5c(n4)C(C)(C)CN5C4CCN(CCO)CC4)cc3)c2)cn1` [Example 113, 2-amino-N-{(1S,2S)-2-[(4-{1-[1-(2-hydroxyethyl)piperidin-4-yl]-3,3-dimethyl-2,3-dihydro-1H-pyrrolo[3,2-b]pyridin-5-yl}phenyl)methoxy]cyclopentyl}-5-(1-methyl-1H-pyrazol-4-yl)pyridine-3-carboxamide]: the IC50 in assay [1] was under 10 nM; in assay [2], 10 to 100 nM; in assay [3] (setting [4]), 100 to 1000 nM.
Turning to `CC1(C)C(=O)N(C2CCN(CCO)CC2)c2ccc(-c3ccc(CO[C@H]4CCC[C@@H]4NC(=O)c4cc(-c5ccc(F)nc5)cnc4N)cc3)nc21` [Example 74, 6-amino-6′-fluoro-N-{(1S,2S)-2-[(4-{1-[1-(2-hydroxyethyl)piperidin-4-yl]-3,3-dimethyl-2-oxo-2,3-dihydro-1H-pyrrolo[3,2-b]pyridin-5-yl}phenyl)methoxy]cyclopentyl}[3,3′-bipyridine]-5-carboxamide], the half-inhibitory concentration (IC50) was 100 to 1000 nM in assay [1], over 1000 nM in assay [2] and 100 to 1000 nM in assay [3].
Regarding `Cn1cc(-c2cnc(N)c(C(=O)N[C@H]3CCC[C@@H]3OCc3ccc(-c4cnc5c(c4)C(C)(C)CN5C4CCN(CCO)CC4)cc3)c2)cn1` [Example 77, 2-amino-N-{(1S,2S)-2-[(4-{1-[1-(2-hydroxyethyl)piperidin-4-yl]-3,3-dimethyl-2,3-dihydro-1H-pyrrolo[2,3-b]pyridin-5-yl}phenyl)methoxy]cyclopentyl}-5-(1-methyl-1H-pyrazol-4-yl)pyridine-3-carboxamide], the 50% inhibitory concentration (IC50) in assay [1] is under 10 nM; in assay [2], under 10 nM; in assay [3] (setting [4]), 10 to 100 nM.
As to `Cn1cc(-c2cnc(N)c(C(=O)N[C@H]3CCC[C@@H]3OCc3ccc(-c4cnc5c(c4)C(C)(C)CCN5C4CCN(CCO)CC4)cc3)c2)cn1` [Example 158, 2-amino-N-{(1S,2S)-2-[(4-{8-[1-(2-hydroxyethyl)piperidin-4-yl]-5,5-dimethyl-5,6,7,8-tetrahydro-1,8-naphthyridin-3-yl}phenyl)methoxy]cyclopentyl}-5-(1-methyl-1H-pyrazol-4-yl)pyridine-3-carboxamide], the IC50 in assay [1] was under 10 nM; in assay [2] it was under 10 nM; in assay [3] (setting [4]), 10 to 100 nM.
Take `CN1CC(C)(C)c2cc(-c3ccc(CO[C@H]4CCC[C@@H]4NC(=O)c4cc(-c5cnn(C)c5)cnc4N)cc3)ccc21` [Example 17, 2-amino-5-(1-methyl-1H-pyrazol-4-yl)-N-[(1S,2S)-2-{[4-(1,3,3-trimethyl-2,3-dihydro-1H-indol-5-yl)phenyl]methoxy}cyclopentyl]pyridine-3-carboxamide]: the IC50 in assay [1] was 10 to 100 nM; in assay [2] it was 10 to 100 nM; in assay [3] (setting [4]) it was over 1000 nM.
As to `CC1(C)CC(N2CCN(C(CO)CO)CC2)c2ccc(-c3ccc(CO[C@H]4CCC[C@@H]4NC(=O)c4cc(-c5cccnc5F)cnc4N)cc3)cc21` (stereo partly drawn) [Example 140, 6-amino-N-{(1S,2S)-2-[(4-{1-[4-(1,3-dihydroxypropan-2-yl)piperazin-1-yl]-3,3-dimethyl-2,3-dihydro-1H-inden-5-yl}phenyl)methoxy]cyclopentyl}-2′-fluoro[3,3′-bipyridine]-5-carboxamide], the IC50 in assay [1] is under 10 nM; in assay [2], under 10 nM; in assay [3] (setting [4]) it was 100 to 1000 nM.
As for `CN1CCN(C2CC(C)(C)c3cc(-c4ccc(CO[C@H]5CCC[C@@H]5NC(=O)c5cc(-c6cccnc6F)cnc5N)cc4)ccc32)CC1` (stereo partly drawn) [Example 108, 6-amino-N-[(1S,2S)-2-({4-[3,3-dimethyl-1-(4-methylpiperazin-1-yl)-2,3-dihydro-1H-inden-5-yl]phenyl}methoxy)cyclopentyl]-2′-fluoro[3,3′-bipyridine]-5-carboxamide], the IC50 in assay [1] is under 10 nM; in assay [2], under 10 nM; in assay [3] (setting [4]), 10 to 100 nM.
Turning to `Cn1cc(-c2cnc(N)c(C(=O)N[C@H]3CCC[C@@H]3OCc3ccc(-c4ccc5[nH]c(C(F)(F)F)cc5c4)cc3)c2)cn1` [Example 53, 2-amino-5-(1-methyl-1H-pyrazol-4-yl)-N-[(1S,2S)-2-({4-[2-(trifluoromethyl)-1H-indol-5-yl]phenyl}methoxy)cyclopentyl]pyridine-3-carboxamide], the IC50 in assay [1] was 100 to 1000 nM; in assay [2], 100 to 1000 nM; in assay [3] (setting [4]) it was over 1000 nM.
Regarding `CN(C)CC(=O)NC1Cc2ccc(-c3ccc(CO[C@H]4CCC[C@@H]4NC(=O)c4cc(-c5cnn(C)c5)cnc4N)cc3)cc2C1` (stereo partly drawn) [Example 9, 2-amino-N-{(1S,2S)-2-[(4-{2-[2-(dimethylamino)acetamido]-2,3-dihydro-1H-inden-5-yl}phenyl)methoxy]cyclopentyl}-5-(1-methyl-1H-pyrazol-4-yl)pyridine-3-carboxamide], the IC50 in assay [1] was under 10 nM; in assay [2], 10 to 100 nM; in assay [3] (setting [4]), over 1000 nM.

The record behind these values is patent US20260146035A1, “FUSED BICYCLIC COMPOUNDS AND THEIR USE AS MER AND AXL INHIBITORS” (DONG-A ST CO., LTD., priority 2022, published 2026).
